For assay [1], the target named is T1, H3R (Homo sapiens, UniProt Q9Y5N1). To be noted: for Ki: H3R pKi ± SEM; for SI H4R/H3R (Ki): selectivity index, ratio of Ki H4R/H3R.
For assay [2], the target named is T2, H4R (Homo sapiens, UniProt Q9H3N8).
T2 construct: expressed in transfected cells; host or cells: HEK293T
The assay can be described thus: Competition binding assay with [3H]-histamine in HEK293T cells transiently expressing H4R. Particulars: for binding to H4R in initial screening (in words): screening format, Supplementary Figure S2.

In assay [3] the test system is mouse asthma model. The assay can be described thus: OVA-induced allergic asthma in mice, cell counts in bronchoalveolar lavage. In kind it is in vivo, Male C57Bl/6 mice. Particulars: 3 and 5 mg/kg intraperitoneally 30 min before antigen challenge. Here is the method: Male C57Bl/6 mice weighing 20–25 g, 6–8 weeks old, from our own animal facilities were housed in a room with a 12 h light–dark cycle with water and food ad libitum. Animal care and research protocols were in accordance with the principles and guidelines adopted by the Brazilian College of Animal Experimentation (COBEA) and this project was approved by the Ethical Committee for Animal Research of the Federal University of São Paulo (CEUA 1666/99).
Mice (n = 5 per group) were sensitized on days 0 and 7 by an intraperitoneal injection of a mixture containing […] of ovalbumin (OVA; Grade V, Sigma–Aldrich, United States) and 1 mg of Al(OH)3 in PBS (a total volume of 0.2 ml). Mice were challenged by exposure to an aerosol of OVA generated by an ultrasonic nebulizer (ICEL US-800, SP, Brazil) delivering particles of […] diameter at approximately 0.75 cc/min for 20 min at days 14 and 21. The concentration of OVA in the nebulizer was 2.5% w/v in PBS. The control group consisted of animals immunized as previously described and challenged two times with PBS solution. Compounds 1d and 1e were administered intraperitoneally in two different dosages (5 and 3 mg/kg) to the test groups 30 min before the antigen challenge. Sensitized and control groups were used to assess the anti-inflammatory activity ([Corrêa et al., 2017]).
Mice were euthanized with intraperitoneal ketamine and xylazine (100 and 10 mg/kg, respectively; Agibrands do Brazil, São Paulo, São Paulo, Brazil), 24 h after exposure to the last aerosol challenge. A tracheal cannula was inserted via a mid cervical incision, and the airways were washed twice with 1 ml of phosphate-buffered saline (PBS, pH 7.4 at 4°C).
The bronchoalveolar lavage fluid was centrifuged at 170 × g for 10 min at 4°C, the supernatant was removed, and the cell pellet was re-suspended in 1 ml of PBS. One volume of a solution containing 0.5% crystal violet dissolved in 30% acetic acid was added to nine volumes of the cell suspension. The total number of cells was determined by counting in a hematocytometer. […]

Assay [4] has as its system mouse asthma model. Particulars: cited from earlier work.
The target of assay [5] is T2, H4R. As to the kind of experiment: G protein (Gi1) activation BRET assay, H4R, agonist and antagonist mode. In kind it is cell-based. To be noted: for Gi activation at H4R (agonist mode): BRET Gi1 biosensor, up to 10,000 nM; for block of histamine activity at H4R (antagonist mode): preincubation 30 min at 10,000 nM before histamine.
Assay [6] addresses T1, H3R. The assay can be described thus: G protein (Gi1) activation BRET assay, H3R, agonist and antagonist mode. In kind it is cell-based. On the set-up: expressed in transfected cells; host or cells: HEK293T. Particulars: BRET Gi1 biosensor, up to 10,000 nM.
The mark [7] stands for this setting: displacement of 1.15 nM [3H]-histamine, HEK293T cells, Cheng-Prusoff.
The mark [8] stands for this setting: displacement of 1.15 nM [3H]-histamine, HEK293T cells, Cheng-Prusoff, read-out: H4R pKi ± SEM (converted).

Where “and” joins values, the source holds several entries; their conditions need not be identical. Identical values can stand only once. Entries after “also recorded” stand apart in the source; their conditions may differ. Like-named read-outs stand apart in the source and are kept apart here.

T2 sequence (Q9H3N8 whole entry, species assumed): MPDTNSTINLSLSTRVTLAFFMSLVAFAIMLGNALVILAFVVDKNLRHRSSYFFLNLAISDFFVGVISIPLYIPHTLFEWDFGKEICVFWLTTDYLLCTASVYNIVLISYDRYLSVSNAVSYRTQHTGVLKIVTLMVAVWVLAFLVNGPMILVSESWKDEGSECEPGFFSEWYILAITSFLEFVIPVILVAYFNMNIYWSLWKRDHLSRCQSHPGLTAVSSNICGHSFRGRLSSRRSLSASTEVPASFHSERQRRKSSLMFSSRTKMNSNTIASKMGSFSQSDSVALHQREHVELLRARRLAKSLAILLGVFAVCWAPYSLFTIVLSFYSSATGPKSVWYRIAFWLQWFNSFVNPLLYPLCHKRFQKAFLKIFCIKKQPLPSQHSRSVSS
T1 sequence (Q9Y5N1 whole entry, species assumed): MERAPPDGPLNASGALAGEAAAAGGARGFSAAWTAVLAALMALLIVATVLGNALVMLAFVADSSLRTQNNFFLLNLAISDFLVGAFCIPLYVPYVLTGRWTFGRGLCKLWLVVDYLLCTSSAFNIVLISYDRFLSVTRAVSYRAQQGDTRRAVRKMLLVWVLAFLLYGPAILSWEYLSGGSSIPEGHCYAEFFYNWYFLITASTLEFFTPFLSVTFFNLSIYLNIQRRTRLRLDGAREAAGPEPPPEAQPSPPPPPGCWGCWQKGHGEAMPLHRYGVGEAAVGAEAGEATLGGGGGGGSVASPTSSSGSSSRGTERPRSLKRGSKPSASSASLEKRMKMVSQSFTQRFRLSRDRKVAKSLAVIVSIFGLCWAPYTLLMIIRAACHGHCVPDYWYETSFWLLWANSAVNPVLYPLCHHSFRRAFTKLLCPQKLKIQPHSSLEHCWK

As to `c1ccc2c(c1)CC(CN1CCNCC1)O2` (centres unmarked) [1a, 1-[(2,3-Dihydro-1-benzofuran-2-yl)methyl]piperazine], the “affinity for H3R (in words)” value on H3R [1] was “did not show appreciable affinity”. Besides, the Ki at H3R [1] (setting [7]) was more than 10000 nM; at H4R [2] (setting [8]), more than 10 µM.

`CN1CCN(CC2Cc3ccccc3O2)CC1` (centres unmarked) [1b, 1-[(2,3-dihydro-1-benzofuran-2-yl)methyl]-4-methylpiperazine]: the results for the Ki at H3R [1] (setting [7]) and at H4R [2] (setting [8]) were 2690 nM and more than 10 µM, respectively.

On to `C=CCN1CCN(CC2Cc3ccccc3O2)CC1` (centres unmarked) [1c, 1-allyl-4-[(2,3-dihydro-1-benzofuran-2-yl)methyl]piperazine], for which the “H3R pKi ± SEM” value at H3R [1] (setting [7]) worked out at 6.40 ± 0.21. At H3R [1], the “SI H4R/H3R (Ki)” value is recorded as more than 25. Moreover, at H4R [2] (setting [8]), the Ki is more than 10 µM.

Turning to `c1ccc(N2CCN(CC3Cc4ccccc4O3)CC2)cc1` (centres unmarked) [1d, 1-[(2,3-dihydro-1-benzofuran-2-yl)methyl]-4-phenyl-piperazine], the “effect on total inflammatory cell and eosinophil counts in bronchoalveolar lavage” value in the assay on mouse asthma model [3] was “dose-dependent effect”. Also, in the assay with mouse asthma model [4] (earlier report, ref Corrêa et al., 2017), the “anti-inflammatory activity in mouse asthma model” value is reported as “anti-inflammatory activity only at 5 mg/kg dose”. The “affinity for H3R (in words)” value on H3R [1] is listed as “did not show appreciable affinity”. Further, the Ki at H3R [1] (setting [7]) was more than 10000 nM; on H4R [2] (setting [8]), more than 10 µM.

On to `CN1CCN(CC2Cc3cc(Cl)ccc3O2)CC1` (centres unmarked) [1e, 1-[(5-chloro-2,3-dihydro-1-benzofuran-2-yl)methyl]-4-methylpiperazine], for which the “effect on total inflammatory cell and eosinophil counts in bronchoalveolar lavage” value is “low counts in both doses; also recorded: highly effective at low doses” with mouse asthma model [3] and “better anti-inflammatory activity” with mouse asthma model [3] (listed as LINS01007). Further, the Ki on H3R [1] (setting [7]) was ~851 nM and 851 nM; at H4R [2] (setting [8]), 0.871 µM. Further, the “SI H4R/H3R (Ki)” value at H3R [1] amounted to 1.1. Further, the “increase in affinity for H4R by insertion of the chlorine atom” value at H4R [2] (1e against the non-substituted molecule) is reported as “more than 10 fold”. Moreover, the “binding to H4R in initial screening (in words)” value on H4R [2] was “considerable binding to H4R”. At H4R [5], the “Gi activation at H4R (agonist mode)” value is “did not trigger Gi activation”. In addition, the “block of histamine activity at H4R (antagonist mode)” value at H4R [5] is reported as “fully blocked histamine agonistic effect”.

`Cc1ccc2c(c1)CC(CN1CCN(C)CC1)O2` (centres unmarked) [1f, 1-methyl-4-[(5-methyl-2,3-dihydro-1-benzofuran-2-yl)methyl]piperazine] had a Ki on H3R [1] (setting [7]) of 708 nM. At H3R [1], the “SI H4R/H3R (Ki)” value is reported as 14. Further, the Ki at H4R [2] (read-out: H4R Ki / binding affinity) was approximately 10 µM. Besides, the “binding to H4R in initial screening (in words)” value at H4R [2] was “considerable binding to H4R”. At H4R [5], the “Gi activation at H4R (agonist mode)” value is “weak agonistic effect in high concentrations; also recorded: moderate agonistic effect” and the “block of histamine activity at H4R (antagonist mode)” value is recorded as “only partially blocked histamine activity; also recorded: only partially reduced histamine effect”.

As to `COc1ccc2c(c1)CC(CN1CCN(C)CC1)O2` (centres unmarked) [1g, 1-methyl-4-[(5-methoxy-2,3-dihydro-1-benzofuran-2-yl)methyl]piperazine], the results for the Ki at H3R [1] (setting [7]) and on H4R [2] (setting [8]) were 871 nM and more than 10 µM, respectively. In addition, the “SI H4R/H3R (Ki)” value at H3R [1] is more than 11.

As to `CN1CCN(CC2Cc3cc(C(C)(C)C)ccc3O2)CC1` (centres unmarked) [1h, 1-methyl-4-[(5-tert-butyl-2,3-dihydro-1-benzofuran-2-yl)methyl]piperazine], the Ki at H3R [1] (setting [7]) was ~851 nM and 851 nM; on H4R [2] (setting [8]) it was more than 10 µM. At H3R [1], the “SI H4R/H3R (Ki)” value was more than 11.

As for `Clc1ccc2c(c1)CC(CN1CCN(c3ccccc3)CC1)O2` (centres unmarked) [1i, 1-[(5-chloro-2,3-dihydro-1-benzofuran-2-yl)methyl]-4-phenylpiperazine], at H3R [1], the “affinity for H3R (in words)” value is “did not show appreciable affinity”. The Ki at H3R [1] (setting [7]) was more than 10000 nM; at H4R [2] (setting [8]), more than 10 µM.

In the case of `NC(=NCc1ccc(Cl)cc1)SCCCc1cnc[nH]1` [Clobenpropit], at H3R [6], the “Gi activation at H3R (agonist mode)” value is “unable to trigger Gi activation”.

In the case of `NCCc1c[nH]cn1` [Histamine, reference compound], the “Gi activation at H4R (agonist mode)” value on H4R [5] is recorded as “poor stimulant of Gi”. Moreover, the “Gi activation at H3R (agonist mode)” value on H3R [6] is “strong activation signal”.

As for `CN1CCN(C(=O)c2cc3cc(Cl)ccc3[nH]2)CC1` [JNJ-7777120, reference compound], in the assay with mouse asthma model [4] (ref Neumann et al., 2013), the “effect on inflammatory infiltrations in experimental murine asthma model” value was “capable of reducing the inflammatory infiltrations”.
